From PubChem BioAssay (NCI)
Values joined by “and” are separate entries in the source; they are usually repeats but may differ in a detail not shown here. Identical values can stand only once.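 Five compound concentrations were applied to cells in 96-well plates for 48 hours; endpoints were derived by simple linear interpolation of the resulting dose-response curve. The concentration for 50% growth inhibition is given as GI50. Definition used: TGI = concentration required for complete inhibition of growth.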

Legend:
Assay in all cases: NCI anticancer screen, dose series, 48 h
[1] = test system: BT-549 breast
[2] = test system: TK-10 renal
[3] = test system: SK-OV-3 ovarian
[4] = test system: RPMI-8226 leukemia
[5] = test system: SF-268 CNS
[6] = test system: MDA-MB-231 breast
[7] = test system: HCC-2998 colon
[8] = test system: RXF 393 renal
[9] = test system: KM12 colon
[10] = test system: IGROV1 ovarian
[11] = test system: MDA-MB-435
[12] = test system: COLO 205 colon
[13] = test system: HCT-116 colon
[14] = test system: MOLT-4 leukemia
[15] = test system: NCI-H522 lung
[16] = test system: CCRF-CEM leukemia
[17] = test system: SR leukemia
[18] = test system: SK-MEL-28 melanoma
[19] = test system: SK-MEL-5 melanoma
[20] = test system: NCI/ADR-RES ovarian
[21] = test system: HOP-92 NSCLC
[22] = test system: CAKI-1 renal
[23] = test system: T-47D breast
[24] = test system: HT29 colon
[25] = test system: UACC-257 melanoma
[26] = test system: SW-620 colon
[27] = test system: NCI-H460 lung
[28] = test system: MCF7 breast
[29] = test system: M14 melanoma
[30] = test system: 786-0 renal
[31] = test system: UO-31 renal
[32] = test system: NCI-H226 lung
[33] = test system: DU-145 prostate
[34] = test system: SF-539 CNS
[35] = test system: MALME-3M melanoma
[36] = test system: OVCAR-4 ovarian
[37] = test system: SF-295 CNS
[38] = test system: OVCAR-5 ovarian
[39] = test system: HOP-62 NSCLC
[40] = test system: A549 NSCLC
[41] = test system: K-562 leukemia
[42] = test system: NCI-H23 lung
[43] = test system: U251 CNS
[44] = test system: EKVX NSCLC
[45] = test system: HS 578T breast
[46] = test system: SNB-19 CNS
[47] = test system: OVCAR-8 ovarian
[48] = test system: SK-MEL-2 melanoma
[49] = test system: HCT-15 colon
[50] = test system: OVCAR-3 ovarian
[51] = test system: SN12C renal
[52] = test system: A498 renal
[53] = test system: HL-60(TB) leukemia
[54] = test system: UACC-62 melanoma
[55] = test system: LOX IMVI melanoma
[56] = test system: ACHN renal
[57] = test system: SNB-75 CNS
[58] = test system: PC-3 prostate

COc1ccc(-c2cc(-c3ccc(Cl)cc3)nc(NCCCCNc3ccnc4cc(Cl)ccc34)n2)cc1
GI50 [1]: 13400 nM
TGI [1]: 28600 nM
GI50 [2]: 3950 nM
TGI [2]: 13300 nM
GI50 [3]: 13000 nM
TGI [3]: 27300 nM
GI50 [4]: 2140 nM
TGI [4]: 5660 nM
GI50 [5]: 2390 nM
TGI [5]: 6310 nM
GI50 [6]: 1720 nM
TGI [6]: 3280 nM
GI50 [7]: 1930 nM
TGI [7]: 3710 nM
GI50 [8]: 1650 nM
TGI [8]: 5200 nM
GI50 [9]: 1900 nM
TGI [9]: 3720 nM
GI50 [10]: 1460 nM
TGI [10]: 3120 nM
GI50 [11]: 1790 nM
TGI [11]: 3270 nM
GI50 [12]: 1860 nM
TGI [12]: 4530 nM
GI50 [13]: 1500 nM
TGI [13]: 2920 nM
GI50 [14]: 2650 nM
TGI [14]: 8280 nM
GI50 [15]: 3650 nM
TGI [15]: 14600 nM
GI50 [16]: 2600 nM
TGI [16]: > 100000 nM
GI50 [17]: 708 nM
TGI [17]: > 100000 nM
GI50 [18]: 1760 nM
TGI [18]: 3320 nM
GI50 [19]: 1700 nM
TGI [19]: 3080 nM
GI50 [20]: 1600 nM
TGI [20]: 3370 nM
GI50 [21]: 1670 nM
TGI [21]: 18300 nM
GI50 [22]: 10600 nM
TGI [22]: 22600 nM
GI50 [23]: 12300 nM
TGI [23]: 31400 nM
GI50 [24]: 1680 nM
TGI [24]: 3570 nM
GI50 [25]: 1960 nM
TGI [25]: 4220 nM
GI50 [26]: 1760 nM
TGI [26]: 3460 nM
GI50 [27]: 2040 nM
TGI [27]: 4350 nM
GI50 [28]: 1820 nM
TGI [28]: 3730 nM
GI50 [29]: 2340 nM
TGI [29]: 6300 nM
GI50 [30]: 1620 nM
TGI [30]: 3020 nM
GI50 [31]: 1830 nM
TGI [31]: 12700 nM
GI50 [32]: 31800 nM
TGI [32]: > 100000 nM
GI50 [33]: 2250 nM
TGI [33]: 4790 nM
GI50 [34]: 6800 nM
TGI [34]: 20900 nM
GI50 [35]: 1750 nM
TGI [35]: 3360 nM
GI50 [36]: 1720 nM
TGI [36]: 3490 nM
GI50 [37]: 8020 nM
TGI [37]: 24200 nM
GI50 [38]: 15400 nM
TGI [38]: 29500 nM
GI50 [39]: 1690 nM
TGI [39]: 3440 nM
GI50 [40]: 1870 nM
TGI [40]: 3900 nM
GI50 [41]: 1830 nM
TGI [41]: 5020 nM
GI50 [42]: 2610 nM
TGI [42]: 9300 nM
GI50 [43]: 11000 nM
TGI [43]: 23800 nM
GI50 [44]: 13200 nM
TGI [44]: 35100 nM
GI50 [45]: 14600 nM
TGI [45]: 38900 nM
GI50 [46]: 11000 nM
TGI [46]: 25700 nM
GI50 [47]: 1900 nM
TGI [47]: 4280 nM
GI50 [48]: 20300 nM
TGI [48]: 52800 nM
GI50 [49]: 1690 nM
TGI [49]: 3710 nM
GI50 [50]: 1650 nM
TGI [50]: 3110 nM
GI50 [51]: 1500 nM
TGI [51]: 3180 nM
GI50 [52]: 4170 nM
TGI [52]: 17400 nM
GI50 [53]: 5080 nM
TGI [53]: 22100 nM
GI50 [54]: 17800 nM
TGI [54]: 35800 nM
GI50 [55]: 1700 nM
TGI [55]: 3180 nM
GI50 [56]: 12600 nM
TGI [56]: 25600 nM
GI50 [57]: 10000 nM
TGI [57]: 22100 nM

CC[C@H](C)[C@H](NC(=O)[C@H]1CCCCN1C)C(=O)N(C)[C@H](C[C@@H](OC(C)=O)c1cccc(C(=O)N[C@@H](Cc2ccccc2)C[C@H](C)C(=O)O)n1)C(C)C
GI50 [1]: 2.5 nM
TGI [1]: 11.6 nM
GI50 [58]: 2.73 nM and 2.5 nM
TGI [58]: > 25000 nM
TGI [2]: > 25000 nM
GI50 [3]: 3.48 nM and 2.5 nM
TGI [3]: > 25000 nM
GI50 [4]: 0.816 nM and 2.5 nM
TGI [4]: > 25000 nM
GI50 [5]: 4.35 nM and 2.5 nM
TGI [5]: > 25000 nM
GI50 [6]: 3.16 nM and 2.5 nM
TGI [6]: > 25000 nM
GI50 [7]: 5.51 nM and 2.5 nM
TGI [7]: > 25000 nM
GI50 [9]: 1.16 nM and 2.5 nM
TGI [9]: > 25000 nM
GI50 [10]: 3.8 nM and 2.5 nM
TGI [10]: > 25000 nM
GI50 [11]: 0.279 nM and < 2.5 nM
TGI [11]: 1.52 nM and < 2.5 nM
GI50 [12]: 1.87 nM
TGI [12]: 14.3 nM
GI50 [13]: 2.25 nM and 2.5 nM
TGI [13]: 4160 nM
GI50 [14]: 3.64 nM and 2.5 nM
TGI [14]: > 25000 nM
GI50 [15]: 0.5 nM and < 2.5 nM
TGI [15]: < 2.5 nM
GI50 [16]: 0.818 nM and 2.5 nM
TGI [16]: > 25000 nM
GI50 [17]: 0.529 nM and 2.5 nM
TGI [17]: > 25000 nM
TGI [18]: > 25000 nM
GI50 [19]: 0.482 nM and 2.5 nM
TGI [19]: 19.3 nM and 2.79 nM
GI50 [20]: 58.4 nM and 9.46 nM
TGI [20]: > 25000 nM
GI50 [23]: 1.36 nM
GI50 [24]: 1.68 nM
GI50 [26]: 0.493 nM and 2.5 nM
TGI [26]: > 25000 nM
GI50 [27]: 2.78 nM and 2.5 nM
TGI [27]: > 25000 nM
GI50 [28]: 0.341 nM and 2.5 nM
TGI [28]: > 25000 nM
GI50 [29]: < 2.5 nM
TGI [29]: < 2.5 nM
GI50 [30]: 5.55 nM and 2.5 nM
TGI [30]: > 25000 nM
TGI [31]: > 25000 nM
TGI [32]: > 25000 nM
GI50 [33]: 2.86 nM and 2.5 nM
TGI [33]: > 25000 nM
GI50 [34]: 1.48 nM and < 2.5 nM
TGI [34]: 7.42 nM and < 2.5 nM
GI50 [35]: 1950 nM
TGI [35]: > 25000 nM
GI50 [36]: 57 nM and 16.8 nM
TGI [36]: > 25000 nM
GI50 [37]: 2.75 nM and < 2.5 nM
TGI [37]: < 2.5 nM
TGI [38]: > 25000 nM
GI50 [39]: 2.75 nM and 2.5 nM
TGI [39]: > 25000 nM
TGI [40]: > 25000 nM
GI50 [41]: 0.539 nM and 2.5 nM
TGI [41]: > 25000 nM
GI50 [42]: 3.56 nM and 2.5 nM
TGI [42]: > 25000 nM
GI50 [43]: 0.744 nM and 2.5 nM
TGI [43]: > 25000 nM
GI50 [44]: 4.93 nM and 2.5 nM
TGI [44]: > 25000 nM
GI50 [45]: 2 nM and 2.5 nM
TGI [45]: > 25000 nM
GI50 [46]: 1.38 nM and 2.5 nM
TGI [46]: > 25000 nM
GI50 [47]: 5.42 nM and 2.5 nM
TGI [47]: > 25000 nM
GI50 [48]: 0.774 nM and 2.5 nM
TGI [48]: > 25000 nM
GI50 [49]: 6.4 nM and 2.5 nM
TGI [49]: > 25000 nM
GI50 [50]: 0.389 nM and < 2.5 nM
TGI [50]: 16.5 nM and < 2.5 nM
GI50 [51]: 4.17 nM and 2.5 nM
TGI [51]: > 25000 nM
GI50 [52]: 1.84 nM and < 2.5 nM
GI50 [53]: 1.11 nM and < 2.5 nM
TGI [53]: 5.92 nM and < 2.5 nM
GI50 [54]: 0.38 nM and 2.5 nM
TGI [54]: > 25000 nM
GI50 [55]: 1.68 nM and 2.5 nM
TGI [55]: > 25000 nM
GI50 [56]: 7.87 nM and 2.5 nM
TGI [56]: > 25000 nM
TGI [57]: > 25000 nM
